Molecules are shown by their SMILES.

Assay [1] has as its target T1, TRAP1 (Homo sapiens, UniProt Q12931).
T1 sequence (Q12931 60-704): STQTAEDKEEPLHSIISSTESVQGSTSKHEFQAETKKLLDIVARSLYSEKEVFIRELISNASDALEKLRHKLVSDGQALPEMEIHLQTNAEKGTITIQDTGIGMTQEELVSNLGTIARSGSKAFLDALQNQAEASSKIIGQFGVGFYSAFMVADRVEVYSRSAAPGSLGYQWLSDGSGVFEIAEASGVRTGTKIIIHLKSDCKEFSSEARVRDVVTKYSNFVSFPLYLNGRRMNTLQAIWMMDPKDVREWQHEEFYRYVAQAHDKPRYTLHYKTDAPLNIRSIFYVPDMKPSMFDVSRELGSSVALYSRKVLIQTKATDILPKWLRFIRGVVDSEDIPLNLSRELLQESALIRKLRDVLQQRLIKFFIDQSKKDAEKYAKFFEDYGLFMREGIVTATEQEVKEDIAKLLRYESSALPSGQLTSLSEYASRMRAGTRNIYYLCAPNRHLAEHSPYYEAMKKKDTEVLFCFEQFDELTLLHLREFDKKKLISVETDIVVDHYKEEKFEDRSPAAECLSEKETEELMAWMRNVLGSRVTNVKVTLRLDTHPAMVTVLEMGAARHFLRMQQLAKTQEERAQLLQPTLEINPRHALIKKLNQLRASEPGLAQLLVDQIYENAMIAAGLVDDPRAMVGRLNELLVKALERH
Kind of assay: ATPase activity assay (PiColorLock Gold Phosphate Detection Kit). Format: biochemical. The arrangement: hexahistidine tag followed by TEV protease cleavage site (N, cleaved yes); made in house; host or cells: E. coli BL21 (DE3). The following applies: result in words. The protocol:
The ATPase activity of TRAP1 was measured using the PiColorLock Gold Phosphate Detection Kit (Abcam). Then, 0.5 µM TRAP1 (wild-type or mutation) was pre-incubated along with inhibitors at various concentrations for 30 minutes and then incubated with 0.2 mM ATP at 37° C. for 3 hours in ATPase activity assay buffer containing 50 mM Tris-HCl, 20 mM KCl, and 6 mM MgCl (pH 7.4). Next, 20 µL of a mixture of a PiColorLock Gold reagent and an accelerator (100:1) was added to each sample (100 μL). After 5 minutes of incubation, 10 μL of a stabilizer was added to stop color development. Absorbance was measured at 620 nm using a microplate reader (Synergy NEO, BioTek). The background signal was normalized by subtracting the absorbance of unreacted samples.

For assay [2], the target named is T2, human full-length TRAP1 protein (Homo sapiens, UniProt Q12931).
T2 construct: containing human full-length TRAP1 protein (400 nM); hexahistidine tag followed by TEV protease cleavage site (N, cleaved yes); made in house; host or cells: E. coli BL21 (DE3)
T2 sequence (Q12931 60-704): T1 sequence (Q12931 60-704)
Kind of assay: Fluorescence polarization (FP) analysis using SB-TM2 probe (client-binding site). The note with it: for IC50: FP analysis using SB-TM2; for Activity compared to that of SMX: TRAP1 binding, relative to SMX of the same table. The protocol:
The substance to be analyzed (at a final volume of 100 μL) was added to FP buffer ([…], 2.7 mM KCl, 4.3 mM Na2HPO4, 1.4 mM KH2PO4 (pH 7.3), 1 mM DTT, 2 mM MgCl2, and 0.1 mg/mL BSA) containing human full-length TRAP1 protein (400 nM) and SB-TM2 probe (100 nM) and then reacted at room temperature for 1 hour (96-well plate). Using a SYNERGY NEO microplate reader, FP was measured at an excitation wavelength set to 440 nm and an emission wavelength set to 500 nm.
(Fluorescence polarisation rises when a labelled molecule tumbles more slowly, as on binding a larger partner.)

The subject of assay [3] is HIF1α. In words: Drug activity assay using MIO-M1 HRE/GFP cell line under hypoxia. In kind it is cell-based. The note with it: for IC50: MIO-M1, 24 h, HIF1α inhibitory activity in MIO-M1 cells, 1% O2 24 hours; for Activity compared to that of SMX: HIF1α inhibition, relative to SMX of the same table. The protocol:
After transfection (jetPRIME kit) of MIO-M1 Müller cells with 5HRE/GFP plasmid (Addgene, #46926), the cells transfected with the plasmid were selected using 1 mg/ml of G418 (Neomycin), a selectable marker. A stable cell line was constructed by selecting cells, growing in a colony form, from single cells. The prepared MIO-M1-HRE/GFP stable cell line was dispensed into a 96-well plate and treated with drugs at different concentrations the next day. After being exposed to a hypoxic environment (1% O2) for 24 hours, the GFP (Ex/Em: 488/507) fluorescence signal was measured using a SYNERGY NEO microplate reader (BioTek Instrument). The relative fluorescence value was calculated on the basis of 100% of the negative control group.

Setting [4] is: Table 4, other synthetic compounds.
Where [5] appears, read: Table 9, other synthetic compounds.
[6] abbreviates: Table 2, antioxidant-TPP conjugates.
Setting [7] is: Table 7, TPP-antioxidant conjugates.
Where [8] appears, read: Table 3, other synthetic compounds.
Where [9] appears, read: Table 8, other synthetic compounds.

For `CC(C)NCCCn1c(Sc2cc3c(cc2I)OCO3)nc2c(N)ncnc21` [PU-H71, reference compound], the “TRAP1 ATPase activity with increasing concentration” value in assay [1] is on record as “ATPase activity decreased with the increasing concentration”.

The term IC50 denotes the concentration that inhibits the measured activity by half. For `c1ccc(CCCCCCCCCC[P+](c2ccccc2)(c2ccccc2)c2ccccc2)cc1` [SB-B001, Triphenyl(10-phenyldecyl)phosphonium], the values for the half-maximal inhibitory concentration (IC50) in assay [2] (setting [4]) and in assay [3] (setting [5]) were 2970 ± 1050 nM and 94.7 ± 13.2 nM, respectively. Besides, the results for the “Activity compared to that of SMX” value in assay [2] (Table 4) and in assay [3] (Table 9) were 0.14 and 2.95, respectively.

For the molecule `CC1=C(C)C(=O)C(CCCCCCCCCC[P+](c2ccccc2)(c2ccccc2)c2ccccc2)=CC1=O` [SkQ1, (10-(4,5-Dimethyl-3,6-dioxocyclohexa-1,4-diene-1-yl)decyl)triphenylphosphonium, reference compound], the IC50 turned out to be 696 ± 55.4 nM in assay [2] (setting [6]) and 183 ± 9.1 nM in assay [3] (setting [7]). The “Activity compared to that of SMX” value in assay [3] (Table 7) amounted to 1.79.

As for `COC1=C(OC)C(=O)C(CCCCCCCCCC[P+](c2ccccc2)(c2ccccc2)c2ccccc2)=C(C)C1=O` [SMX, (10-(4,5-Dimethoxy-2-methyl-3,6-dioxocyclohexadien-1-yl)decyl)triphenylphosphonium, reference compound], the IC50 in assay [2] (Table 1, alkyl-TPPs) amounted to 623 ± 37.5 nM; in assay [2] (setting [6]) it was 824 ± 51.2 nM; in assay [2] (setting [8]), 791 ± 51.2 nM; in assay [2] (setting [4]), 406 ± 38.9 nM; in assay [3] (Table 6, alkyl-TPPs), 468 ± 15.1 nM; in assay [3] (setting [7]), 327 ± 22.9 nM. The figures for the concentration for half-maximal inhibition (IC50) in assay [3] (setting [9]) and in assay [3] (setting [5]) were 514 ± 55.2 nM and 279 ± 17 nM, respectively. In addition, the “Activity compared to that of SMX” value in assay [2] (Table 1), in assay [2] (Table 2), in assay [2] (Table 3), in assay [2] (Table 4), in assay [3] (Table 6) and in assay [3] (Table 7) was 1 in each case. Further, the “Activity compared to that of SMX” value in assay [3] (Table 8) and in assay [3] (Table 9) was 1 each time.

As to `COc1c(Br)c(C)c(CCCCCCCCCC[P+](c2ccccc2)(c2ccccc2)c2ccccc2)c(OC)c1OC` [SB-U005, (10-(3-Bromo-4,5,6-trimethoxy-2-methylphenyl)decyl)triphenylphosphonium], the 50% inhibitory concentration (IC50) in assay [2] (setting [8]) was 385 ± 83.5 nM; in assay [3] (setting [9]), 131 ± 9.1 nM. Besides, the “Activity compared to that of SMX” value in assay [3] (Table 8) was 3.92.

For the molecule `c1ccc([P+](CCCCCCCCCCC2CCCCC2)(c2ccccc2)c2ccccc2)cc1` [SB-B002, (10-Cyclohexyldecyl)triphenylphosphonium chloride], the IC50 in assay [3] (setting [5]) turned out to be 22.3 ± 1 nM. Besides, the “Activity compared to that of SMX” value in assay [3] (Table 9) turned out to be 12.51.

Regarding `CC1=C(CCCCCCCCCC[P+](c2ccccc2)(c2ccccc2)c2ccccc2)C(=O)c2ccccc2C1=O` [SB-K001, (10-(3-Methyl-1,4-dioxo-1,4-dihydronaphthalen-2-yl)decyl)triphenylphosphonium], the IC50 in assay [2] (setting [4]) came out at 166 ± 23 nM; in assay [3] (setting [5]) it was 55.5 ± 3.3 nM. Also, the “Activity compared to that of SMX” value in assay [2] (Table 4) is recorded as 2.45; in assay [3] (Table 9), 5.03.

With `CCCCCC[P+](c1ccccc1)(c1ccccc1)c1ccccc1.[Br-]` [TPP-6, hexyltriphenylphosphonium bromide, reference compound], the 50% inhibitory concentration (IC50) in assay [2] (Table 1, alkyl-TPPs) stood at 18800 ± 5390 nM; in assay [3] (Table 6, alkyl-TPPs), 1430 nM. For the same molecule, the “Activity compared to that of SMX” value amounted to 0.03 in assay [2] (Table 1) and 0.33 in assay [3] (Table 6).

With `COc1c(C)c(CCCCCCCCCC[P+](c2ccccc2)(c2ccccc2)c2ccccc2)c(Br)c(OC)c1OC` [SB-U012, (10-(2-Bromo-3,4,5-trimethoxy-6-methylphenyl)decyl)triphenylphosphonium], the half-maximal inhibitory concentration (IC50) in assay [2] (setting [8]) turned out to be 601 ± 90.6 nM; in assay [3] (setting [9]), 177 ± 8.8 nM. Further, the figures for the “Activity compared to that of SMX” value in assay [2] (Table 3) and in assay [3] (Table 8) were 1.315 and 2.90, respectively.

Take `CCCCCCCC[P+](c1ccccc1)(c1ccccc1)c1ccccc1` [TPP-8, Octyltriphenylphosphonium]: the concentration for half-maximal inhibition (IC50) turned out to be 2570 ± 258 nM in assay [2] (Table 1, alkyl-TPPs) and 643 ± 258 nM in assay [3] (Table 6, alkyl-TPPs). For the same molecule, the figures for the “Activity compared to that of SMX” value in assay [2] (Table 1) and in assay [3] (Table 6) were 0.24 and 0.73, respectively. Moreover, the “TRAP1 binding capacity (competitive binding with SB-TM2, CBS of TRAP1)” value is given as “competitive binding with SB-TM2 was confirmed to be enabled” in assay [2] (result in words) and “competitive binding to SB-TM2 is confirmed to be enabled” in assay [2] (result in words, listed as octyl-TPP).

As for `CCCCCCCCCC[P+](c1ccccc1)(c1ccccc1)c1ccccc1` [TPP-10, Decyltriphenylphosphonium], the IC50 in assay [2] (Table 1, alkyl-TPPs) worked out at 693 ± 57.8 nM; in assay [3] (Table 6, alkyl-TPPs) it was 314 ± 57.8 nM. Moreover, the “Activity compared to that of SMX” value was found to be 0.90 in assay [2] (Table 1) and 1.49 in assay [3] (Table 6).

Turning to `CCCCCCCCCCCC[P+](c1ccccc1)(c1ccccc1)c1ccccc1` [TPP-12, Dodecyltriphenylphosphonium], the IC50 was 377 ± 35.4 nM in assay [2] (Table 1, alkyl-TPPs) and 111 ± 35.4 nM in assay [3] (Table 6, alkyl-TPPs). Further, the “Activity compared to that of SMX” value is on record as 1.65 in assay [2] (Table 1) and 4.21 in assay [3] (Table 6). The “binding capacity compared to that of SMX (MitoQ)” value in assay [2] (result in words) is on record as “superior to that of SMX”.

Turning to `CC1(C)CC(NC(=O)C[P+](c2ccccc2)(c2ccccc2)c2ccccc2)CC(C)(C)N1[O]` [Mito-TEMPO, reference compound], in assay [2] (result in words), the “TRAP1 binding capacity (competitive binding with SB-TM2, CBS of TRAP1)” value is reported as “do not exhibit TRAP1 binding capacity”.

In the case of `COc1c(O)c(C)c(CCCCCCCCCC[P+](c2ccccc2)(c2ccccc2)c2ccccc2)c(Br)c1OC` [SB-U009, (10-(2-Bromo-5-hydroxy-3,4-dimethoxy-6-methylphenyl)decyl)triphenylphosphonium], the concentration for half-maximal inhibition (IC50) in assay [2] (setting [8]) stood at 909 ± 136 nM; in assay [3] (setting [9]) it was 191 ± 23.6 nM. The “Activity compared to that of SMX” value in assay [2] (Table 3) amounted to 0.8701; in assay [3] (Table 8), 2.69.

For the molecule `COc1c(C)c(CCCCCCCCCC[P+](c2ccccc2)(c2ccccc2)c2ccccc2)c(OC)c(OC)c1OC` [SB-U014, Triphenyl(10-(2,3,4,5-tetramethoxy-6-methylphenyl)decyl)phosphonium], the IC50 in assay [2] (setting [4]) was 805 ± 99.4 nM; in assay [3] (setting [5]) it was 69.4 ± 3.1 nM. Also, in assay [3] (Table 9), the “Activity compared to that of SMX” value was 4.02.

Values taken from patent US20240300987A1, “TRAP1 INHIBITOR AND USE THEREOF” (SMARTIN BIO INC., priority 2021, published 2024).
